# From PubChem BioAssay (NCI)
#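 Results reflect a 48-hour exposure of cells in 96-well plates to compound at five concentrations. GI50 marks 50% less growth. TGI marks complete inhibition of growth.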
# Key:
# Assay in all cases: growth of human tumour cells (NCI), 48 h
# [1] = tested on: UO-31 renal
# [2] = tested on: SK-OV-3 ovarian
# [3] = tested on: UACC-62 melanoma
# [4] = tested on: MCF7 breast
# [5] = tested on: HCT-116 colon
# [6] = tested on: HOP-62 NSCLC
# [7] = tested on: DU-145 prostate
# [8] = tested on: CAKI-1 renal
# [9] = tested on: RXF 393 renal
# [10] = tested on: BT-549 breast
# [11] = tested on: NCI-H460 lung
# [12] = tested on: SF-539 CNS
# [13] = tested on: SK-MEL-2 melanoma
# [14] = tested on: MDA-MB-435
# [15] = tested on: COLO 205 colon
# [16] = tested on: SNB-19 CNS
# [17] = tested on: MOLT-4 leukemia
# [18] = tested on: NCI-H226 lung
# [19] = tested on: OVCAR-3 ovarian
# [20] = tested on: CCRF-CEM leukemia
# [21] = tested on: PC-3 prostate
# [22] = tested on: HS 578T breast
# [23] = tested on: NCI-H522 lung
# [24] = tested on: KM12 colon
# [25] = tested on: A549 NSCLC
# [26] = tested on: RPMI-8226 leukemia
# [27] = tested on: 786-0 renal
# [28] = tested on: T-47D breast
# [29] = tested on: SR leukemia
# [30] = tested on: M14 melanoma
# [31] = tested on: HCT-15 colon
# [32] = tested on: HOP-92 NSCLC
# [33] = tested on: U251 CNS
# [34] = tested on: K-562 leukemia
# [35] = tested on: TK-10 renal
# [36] = tested on: EKVX NSCLC
# [37] = tested on: NCI/ADR-RES ovarian
# [38] = tested on: OVCAR-5 ovarian
# [39] = tested on: SK-MEL-28 melanoma
# [40] = tested on: HCC-2998 colon
# [41] = tested on: SK-MEL-5 melanoma
# [42] = tested on: ACHN renal
# [43] = tested on: SNB-75 CNS
# [44] = tested on: HT29 colon
# [45] = tested on: MDA-MB-231 breast
# [46] = tested on: SW-620 colon
# [47] = tested on: IGROV1 ovarian
# [48] = tested on: OVCAR-8 ovarian
# [49] = tested on: NCI-H23 lung
# [50] = tested on: SN12C renal
# [51] = tested on: OVCAR-4 ovarian
# [52] = tested on: UACC-257 melanoma
# [53] = tested on: HL-60(TB) leukemia
# [54] = tested on: SF-268 CNS
# [55] = tested on: A498 renal
# [56] = tested on: LOX IMVI melanoma
# [57] = tested on: SF-295 CNS
compound,measurement,setting,value
C/C=C/C/C=C/[C@H](C)C[C@H](O)[C@@H]1C[C@@H]2O[C@H]2/C=C/[C@@H]2OC(C)(C)O[C@H]2/C=C/C[C@H](C)CC(=O)O1,GI50,[1],3.01 µM
same,TGI,[1],18.7 µM
same,GI50,[2],24.5 µM
same,TGI,[2],> 100 µM
same,GI50,[3],4.31 µM
same,TGI,[3],20.2 µM
same,GI50,[4],25.5 µM
same,TGI,[4],> 100 µM
same,GI50,[5],8.85 µM
same,TGI,[5],> 100 µM
same,GI50,[6],15.1 µM
same,TGI,[6],90.2 µM
same,GI50,[7],12.3 µM
same,TGI,[7],> 100 µM
same,GI50,[8],2900 nM
same,TGI,[8],31.1 µM
same,GI50,[9],30.4 µM
same,TGI,[9],> 100 µM
same,GI50,[10],16.3 µM
same,TGI,[10],> 100 µM
same,GI50,[11],5.65 µM
same,TGI,[11],> 100 µM
same,GI50,[12],26.3 µM
same,TGI,[12],> 100 µM
same,GI50,[13],39.3 µM
same,TGI,[13],> 100 µM
same,GI50,[14],24 µM
same,TGI,[14],> 100 µM
same,GI50,[15],8.02 µM
same,TGI,[15],> 100 µM
same,GI50,[16],21.7 µM
same,TGI,[16],> 100 µM
same,GI50,[17],3.94 µM
same,TGI,[17],37.4 µM
same,GI50,[18],6.08 µM
same,TGI,[18],> 100 µM
same,GI50,[19],12.4 µM
same,TGI,[19],> 100 µM
same,GI50,[20],2780 nM
same,TGI,[20],56.4 µM
same,GI50,[21],5.75 µM
same,TGI,[21],> 100 µM
same,GI50,[22],5.22 µM
same,TGI,[22],> 100 µM
same,GI50,[23],3.6 µM
same,TGI,[23],31.9 µM
same,GI50,[24],7.85 µM
same,TGI,[24],> 100 µM
same,GI50,[25],8.79 µM
same,TGI,[25],> 100 µM
same,GI50,[26],3.16 µM
same,TGI,[26],37 µM
same,GI50,[27],69.7 µM
same,TGI,[27],> 100 µM
same,GI50,[28],2180 nM
same,TGI,[28],8.53 µM
same,GI50,[29],8.08 µM
same,TGI,[29],> 100 µM
same,GI50,[30],12.9 µM
same,TGI,[30],> 100 µM
same,GI50,[31],4.84 µM
same,TGI,[31],> 100 µM
same,GI50,[32],6.71 µM
same,TGI,[32],91.6 µM
same,GI50,[33],13.5 µM
same,TGI,[33],> 100 µM
same,GI50,[34],4.79 µM
same,TGI,[34],> 100 µM
same,GI50,[35],51.8 µM
same,TGI,[35],> 100 µM
same,GI50,[36],21 µM
same,TGI,[36],> 100 µM
same,GI50,[37],3.28 µM
same,TGI,[37],> 100 µM
same,GI50,[38],73.8 µM
same,TGI,[38],> 100 µM
same,GI50,[39],47.8 µM
same,TGI,[39],> 100 µM
same,GI50,[40],> 100 µM
same,TGI,[40],> 100 µM
same,GI50,[41],4.39 µM
same,TGI,[41],44 µM
same,GI50,[42],6.05 µM
same,TGI,[42],> 100 µM
same,GI50,[43],24.6 µM
same,TGI,[43],> 100 µM
same,GI50,[44],12 µM
same,TGI,[44],> 100 µM
same,GI50,[45],36.1 µM
same,TGI,[45],> 100 µM
same,GI50,[46],22.7 µM
same,TGI,[46],> 100 µM
same,GI50,[47],10.5 µM
same,TGI,[47],> 100 µM
same,GI50,[48],3.7 µM
same,TGI,[48],> 100 µM
same,GI50,[49],6.08 µM
same,TGI,[49],> 100 µM
same,GI50,[50],5.23 µM
same,TGI,[50],> 100 µM
same,GI50,[51],9.9 µM
same,TGI,[51],> 100 µM
same,GI50,[52],56.7 µM
same,TGI,[52],> 100 µM
same,GI50,[53],5.6 µM
same,TGI,[53],30.9 µM
same,GI50,[54],10.4 µM
same,TGI,[54],> 100 µM
same,GI50,[55],> 100 µM
same,TGI,[55],> 100 µM
same,GI50,[56],7.62 µM
same,TGI,[56],> 100 µM
same,GI50,[57],6.06 µM
same,TGI,[57],60.8 µM
